Test results taken from patent US20210128609A1, “ONCOLOGY TREATMENTS USING ZINC AGENTS” (XYLONIX IP HOLDINGS PTE. LTD., priority 2018, published 2021).

Tests used:
A549 = assay: CellTiter-Glo cell viability, A549; type: cell-based
Description: (§1) The 50% inhibitory concentration (IC50) was determined in the cancer cell lines using CellTiter-Glo luminescent cell viability assay after incubation with different concentrations of active agents. Each cell line was treated with active Zn(II) agent, a standard chemotherapy drug as reference control, and culture medium as vehicle control. Cell Lines. All cell lines were cultured in media supplemented with 10-15% FBS, at a temperature of 37° C., 5% CO2, and 95% humidity. The reference control drug for all cell lines was cisplatin, to be used for genomic analysis. The cell lines tested, the tissue of origin are shown below in Table 1: Procedure for Determining Half Maximal Inhibition Concentration IC50 • 1. Harvested cells during the logarithmic growth period and count cell number using Count-star. • 2. Adjusted cell concentrations to 4.44×10^4 cells/mL with respective culture medium. • 3. Added 90 μL cell suspensions to two 96-well plates (plates A and B) with the final cell density of 4×10^3 cells/well. (cell concentration was adjusted according to the data base or density optimization assay.) • 4a. […]

NCI-H446 = assay: CellTiter-Glo cell viability, NCI-H446; type: cell-based
Description: (§2) The 50% inhibitory concentration (IC50) was determined in the cancer cell lines using CellTiter-Glo luminescent cell viability assay after incubation with different concentrations of active agents. Each cell line was treated with active Zn(II) agent, a standard chemotherapy drug as reference control, and culture medium as vehicle control. Cell Lines. All cell lines were cultured in media supplemented with 10-15% FBS, at a temperature of 37° C., 5% CO2, and 95% humidity. The reference control drug for all cell lines was cisplatin, to be used for genomic analysis. The cell lines tested, the tissue of origin are shown below in Table 1: Procedure for Determining Half Maximal Inhibition Concentration IC50 • 1. Harvested cells during the logarithmic growth period and count cell number using Count-star. • 2. Adjusted cell concentrations to 4.44×10^4 cells/mL with respective culture medium. • 3. Added 90 μL cell suspensions to two 96-well plates (plates A and B) with the final cell density of 4×10^3 cells/well. (cell concentration was adjusted according to the data base or density optimization assay.) • 4a. Next day: For the plates of TO reading: • 1) Added 10 μL culture medium to each well of plate A for TO reading. • 2) Equilibrated the plate and its content at RT for approximately 30 min. • 3) Added 50 μL CellTiter-Glo reagent to each well. • 4) Mixed content for 5 min on an orbital shaker to induce cell lysis. • 5) Allowed the plate to incubate at RT for 20 min to stabilize luminescent signal. • 6) Recorded luminescence (TO) using EnVision Multi Label Reader. • 4b. For the plates of test reading: • 1) Prepared 10× solution of Zn(II) agent test article. […] The formula for calculating surviving rate is shown below and the absolute IC50 (EC50) was calculated according to the dose-response curve generated by GraphPad Prism 5.0. • 12) The surviving rate (%)=(LumTest article−LumMedium control)/(LumNon-treated−LumMedium control)×100%.

MES-SA/DX5 = assay: CellTiter-Glo cell viability, MES-SA/DX5; type: cell-based
Description: as §2

DU 145 = assay: CellTiter-Glo cell viability, DU 145; type: cell-based
Description: as §2

KARPAS-422 = assay: CellTiter-Glo cell viability, KARPAS-422; type: cell-based
Description: as §2

PC-3 = assay: CellTiter-Glo cell viability, PC-3; type: cell-based
Description: as §2

JVM-3 = assay: CellTiter-Glo cell viability, JVM-3; type: cell-based
Description: as §2

HCC1954 = assay: CellTiter-Glo cell viability, HCC1954; type: cell-based
Description: as §2

Hep G2 = assay: CellTiter-Glo cell viability, Hep G2; type: cell-based
Description: as §2

HeLa = assay: CellTiter-Glo cell viability, HeLa; type: cell-based
Description: as §1

MOLM-16 = assay: CellTiter-Glo cell viability, MOLM-16; type: cell-based
Description: as §2

L-363 = assay: CellTiter-Glo cell viability, L-363; type: cell-based
Description: as §2

K-562 = assay: CellTiter-Glo cell viability, K-562; type: cell-based
Description: as §2

CA46 = assay: CellTiter-Glo cell viability, CA46; type: cell-based
Description: as §2

JHH-7 = assay: CellTiter-Glo cell viability, JHH-7; type: cell-based
Description: as §2

OCI-LY-19 = assay: CellTiter-Glo cell viability, OCI-LY-19; type: cell-based
Description: as §2

WSU-NHL = assay: CellTiter-Glo cell viability, WSU-NHL; type: cell-based
Description: as §2

NALM-6 = assay: CellTiter-Glo cell viability, NALM-6; type: cell-based
Description: as §2

U-937 = assay: CellTiter-Glo cell viability, U-937; type: cell-based
Description: as §2

Pfeiffer = assay: CellTiter-Glo cell viability, Pfeiffer; type: cell-based
Description: as §2

AMO-1 = assay: CellTiter-Glo cell viability, AMO-1; type: cell-based
Description: as §2

EOL-1 = assay: CellTiter-Glo cell viability, EOL-1; type: cell-based
Description: as §2

THP-1 = assay: CellTiter-Glo cell viability, THP-1; type: cell-based
Description: as §2

Ramos = assay: CellTiter-Glo cell viability, Ramos; type: cell-based
Description: as §2

Hep3B = assay: CellTiter-Glo cell viability, Hep3B; type: cell-based
Description: as §2

50 cancer cell lines = assay: Genetic instability mutation analysis of 50 cell line IC50 distribution
Description: Following the 50 cell line screening tests (OmniScreen™) described in Example 6, each cell line was catalogued (yes or no) for the presence of mutations in the following genes by consulting the OncoExpress™ database (Crown Biosciences Inc., Santa Clara, data accession date 18 May 2018˜30 May 2018). • MLH1 (part of the deficient mismatch repair—dMMR-mutations group) • MSH2 (part of the deficient mismatch repair—dMMR-mutations group) • PMS2 (part of the deficient mismatch repair—dMMR-mutations group) • PARP1 • BRCA1 (part of the BRCA1/BRCA2 mutations group) • BRCA2 (part of the BRCA1/BRCA2 mutations group) • TP53
The integrated data were then analyzed using Excel® software (Microsoft, Seattle). Briefly, the sorting algorithm of the Excel® software was used in grouping of the cell lines carrying certain mutations, and in further analysis of the IC50 distribution in each group.
The IC50 distributions among the cell line groups sharing certain genetic mutations were then analyzed for statistical significance.
Statistical analysis was performed using JMP 13 (SAS Institute Inc. Cary, N.C., USA) or Origin 9 (Origin Lab Corp., Northampton, Mass., USA). All data are represented as mean±standard error of the mean (SEM) and were tested for statistical significance using Mann-Whitney U test or analysis of variance (ANOVA). P-values of <0.05 were interpreted as statistically significant.

[1] = 96 h, top conc. 50 μg/mL Zn(II) agent, 100 μM cisplatin

SMILES: N.N.[Cl][Pt][Cl] [Cisplatin]
- % inhibition at top conc. (A549; [1]): 97.57%
- HillSlope (A549; 96 h dose-response fit): −0.93
- Absolute IC50 (NCI-H446; 96 h, CellTiter-Glo): 0.35 µg/mL
- % inhibition at top conc. (NCI-H446; [1]): 99.99%
- HillSlope (NCI-H446; 96 h dose-response fit): −0.65
- Absolute IC50 (MES-SA/DX5; 96 h, CellTiter-Glo): 0.56 µg/mL
- % inhibition at top conc. (MES-SA/DX5; [1]): 99.97%
- HillSlope (MES-SA/DX5; 96 h dose-response fit): −1.75
- Absolute IC50 (DU 145; 96 h, CellTiter-Glo): 0.20 µg/mL
- % inhibition at top conc. (DU 145; [1]): 99.24%
- HillSlope (DU 145; 96 h dose-response fit): −2.37
- Absolute IC50 (KARPAS-422; 96 h, CellTiter-Glo): 0.37 µg/mL
- % inhibition at top conc. (KARPAS-422; [1]): 99.99%
- HillSlope (KARPAS-422; 96 h dose-response fit): −1.04
- Absolute IC50 (PC-3; 96 h, CellTiter-Glo): 1.13 µg/mL
- % inhibition at top conc. (PC-3; [1]): 93.27%
- HillSlope (PC-3; 96 h dose-response fit): −1.55
- Absolute IC50 (JVM-3; 96 h, CellTiter-Glo): 0.14 µg/mL
- % inhibition at top conc. (JVM-3; [1]): 99.99%
- HillSlope (JVM-3; 96 h dose-response fit): −1.70
- Absolute IC50 (HCC1954; 96 h, CellTiter-Glo): 1.59 µg/mL
- % inhibition at top conc. (HCC1954; [1]): 99.87%
- HillSlope (HCC1954; 96 h dose-response fit): −1.98
- Absolute IC50 (Hep G2; 96 h, CellTiter-Glo): 0.55 µg/mL
- % inhibition at top conc. (Hep G2; [1]): 98.96%
- HillSlope (Hep G2; 96 h dose-response fit): −0.90
- % inhibition at top conc. (HeLa; [1]): 99.91%
- HillSlope (HeLa; 96 h dose-response fit): −1.70
- Absolute IC50 (MOLM-16; 96 h, CellTiter-Glo): 0.15 µg/mL
- % inhibition at top conc. (MOLM-16; [1]): 99.96%
- HillSlope (MOLM-16; 96 h dose-response fit): −1.65
- Absolute IC50 (L-363; 96 h, CellTiter-Glo): 0.83 µg/mL
- % inhibition at top conc. (L-363; [1]): 99.98%
- HillSlope (L-363; 96 h dose-response fit): −2.08
- Absolute IC50 (K-562; 96 h, CellTiter-Glo): 1.02 µg/mL
- % inhibition at top conc. (K-562; [1]): 97.71%
- HillSlope (K-562; 96 h dose-response fit): −1.81
- Absolute IC50 (CA46; 96 h, CellTiter-Glo): 0.21 µg/mL
- % inhibition at top conc. (CA46; [1]): 99.92%
- HillSlope (CA46; 96 h dose-response fit): −1.96
- Absolute IC50 (JHH-7; 96 h, CellTiter-Glo): 0.44 µg/mL
- % inhibition at top conc. (JHH-7; [1]): 99.16%
- HillSlope (JHH-7; 96 h dose-response fit): −0.80
- Absolute IC50 (OCI-LY-19; 96 h, CellTiter-Glo): 0.04 µg/mL
- % inhibition at top conc. (OCI-LY-19; [1]): 99.99%
- HillSlope (OCI-LY-19; 96 h dose-response fit): −2.61
- Absolute IC50 (WSU-NHL; 96 h, CellTiter-Glo): 0.06 µg/mL
- % inhibition at top conc. (WSU-NHL; [1]): 99.99%
- HillSlope (WSU-NHL; 96 h dose-response fit): −1.77
- Absolute IC50 (NALM-6; 96 h, CellTiter-Glo): 0.21 µg/mL
- % inhibition at top conc. (NALM-6; [1]): 99.64%
- HillSlope (NALM-6; 96 h dose-response fit): −2.22
- Absolute IC50 (U-937; 96 h, CellTiter-Glo): 0.37 µg/mL
- % inhibition at top conc. (U-937; [1]): 99.99%
- HillSlope (U-937; 96 h dose-response fit): −4.57
- Absolute IC50 (Pfeiffer; 96 h, CellTiter-Glo): 0.83 µg/mL
- % inhibition at top conc. (Pfeiffer; [1]): 99.98%
- HillSlope (Pfeiffer; 96 h dose-response fit): −1.79
- Absolute IC50 (AMO-1; 96 h, CellTiter-Glo): 0.27 µg/mL
- % inhibition at top conc. (AMO-1; [1]): 99.99%
- HillSlope (AMO-1; 96 h dose-response fit): −3.34
- Absolute IC50 (EOL-1; 96 h, CellTiter-Glo): 0.16 µg/mL
- % inhibition at top conc. (EOL-1; [1]): 99.99%
- HillSlope (EOL-1; 96 h dose-response fit): −1.87
- Absolute IC50 (THP-1; 96 h, CellTiter-Glo): 0.39 µg/mL
- % inhibition at top conc. (THP-1; [1]): 99.98%
- HillSlope (THP-1; 96 h dose-response fit): −3.03
- Absolute IC50 (Ramos; 96 h, CellTiter-Glo): 0.17 µg/mL
- % inhibition at top conc. (Ramos; [1]): 99.99%
- HillSlope (Ramos; 96 h dose-response fit): −2.13
- Absolute IC50 (Hep3B; 96 h, CellTiter-Glo): 0.78 µg/mL
- % inhibition at top conc. (Hep3B; [1]): 99.58%
- HillSlope (Hep3B; 96 h dose-response fit): −1.50
- effect of CREBBPmt-KRASmt-BRCA1WT combination on sensitivity (50 cancer cell lines): strong resistance
